# Experimental data taken from US4346087A, “Antibacterial surface active agent containing azaalkenelactam” (priority 1979, dated 1982).
# Read-outs that look alike come from different tables or passages of the source.
# Tests used:
# Streptococcus faecalis = test: MIC against Streptococcus faecalis; type: cell-based
# Text: (§1) Below are described the antibacterial activities of the compounds in the compositions according to this invention. The results of antibacterial activity tests on the N-alkyl-substituted azaalkenelactams and their derivatives having a carboxylate radical of Examples 1 to 70 were as shown in Tables 1 to 3.
# (§2) The testing method complied with the standard method of Japan Sociaty of Chemotherapy.
# [1] = tested on: Staphylococcus aureus FDA 209P; test: MIC against Staphylococcus aureus FDA 209P; type: cell-based
# Text: (§3) Below are described the antibacterial activities of the compounds in the compositions according to this invention.
# as §2
# [2] = tested on: Staphylococcus epidermidis; test: MIC against Staphylococcus epidermidis; type: cell-based
# Text: as §1, §2
# Escherichia coli NIHJ = test: MIC against Escherichia coli NIHJ; type: cell-based
# Text: as §3, §2
# [3] = tested on: Bacillus subtilis ATCC 6633; test: MIC against Bacillus subtilis ATCC 6633; type: cell-based
# Text: as §1, §2
# [4] = tested on: Desulfovibrio desulfuricans IFO 13699; test: MIC against Desulfovibrio desulfuricans; type: cell-based
# Text: as §3, §2
# Pasteurella multocida = test: MIC against Pasteurella multocida; type: cell-based; conditions: Table 3, heart infusion agar, 37° C., 24 hours
# Text: as §1, §2
# [5] = tested on: Pseudomonas aruginosa IFO 3443; test: MIC against Pseudomonas aeruginosa; type: cell-based
# Text: as §1, §2
# Salmonella typhinurium = test: microbe, parasite or virus in culture; type: cell-based, Salmonella typhimurium; conditions: 24 h
# Text: as §1, §2
# [6] = Table 3, heart infusion agar, 37° C., 24 hours
# [7] = Table 1, azaalkenelactams, heart infusion agar, 37° C., 24 hours
# [8] = Staphylococcus aureus, FDA209P, 24 h
# [9] = Bacillus subtilis, ATCC6633, 24 h
# [10] = Desulfovibrio desulfuricans, IFO13699, 24 h
# [11] = Pasteurella multocida, read-out: MIC
# [12] = Staphylococcus aureus, FDA209P, Table 2, derivatives having a carboxylate radical, heart infusion agar, 37° C., 24 hours, read-out: MIC
# [13] = Desulfovibrio desulfuricans, IFO13699, Table 2, derivatives having a carboxylate radical, heart infusion agar, 37° C., 24 hours, read-out: MIC
# [14] = Staphylococcus aureus, FDA209P, Table 1, azaalkenelactams, heart infusion agar, 37° C., 24 hours, read-out: MIC
# [15] = Escherichia coli, Table 1, azaalkenelactams, heart infusion agar, 37° C., 24 hours, read-out: MIC
compound,measurement,setting,value
"4-(2-hydroxyhexadecyl)aminoethyl-6-methyl-3,6-dihydro-2H-1,4-diazepin-5-one [Example 41]",MIC,Streptococcus faecalis; [6],6.25 µg/mL
same,MIC,[1]; [7],3.12 µg/mL
same,MIC,[2]; [6],1.56 µg/mL
same,MIC,Escherichia coli NIHJ,25 µg/mL
same,MIC,[3]; [6],3.12 µg/mL
same,MIC,[4]; [7],3.12 µg/mL
same,MIC,Pasteurella multocida,< 1.56 µg/mL
same,MIC,[5]; [6],100 µg/mL
CCCCCCCCCCCC(=O)NCCN1CC[N+](CC(=O)[O-])=C(C)CC1=O [4-lauramidoethyl-7-methyl-1-azonia-4-azacyclohept-7-en-5-one-1-acetate],MIC,"Streptococcus faecalis; Enterococcus faecalis, 24 h",12.5 µg/mL
same,MIC,[1]; [8],50 µg/mL
same,MIC,"[2]; Staphylococcus epidermidis, 24 h",12.5 µg/mL
same,MIC,Salmonella typhinurium,6.25 µg/mL
same,MIC,"Escherichia coli NIHJ; Escherichia coli, 24 h",100 µg/mL
same,MIC,[3]; [9],50 µg/mL
same,MIC,[4]; [10],12.5 µg/mL
same,MIC,Pasteurella multocida; [11],< 1.56 µg/mL
same,MIC,"[5]; Pseudomonas, IFO3443, 24 h",200 µg/mL
CCCCCCCCCCCCCCNCCN1CC[N+](CC(=O)[O-])=C(C)CC1=O [4-tetradecylaminoethyl-7-methyl-1-azonia-4-azacyclohept-7-en-5-one-1-acetate],MIC,"Streptococcus faecalis; Enterococcus faecalis, 24 h",6.25 µg/mL
same,MIC,[1]; [12],3.12 µg/mL
same,MIC,"[2]; Staphylococcus epidermidis, Table 3, heart infusion agar, 37° C., 24 hours, read-out: MIC",3.12 µg/mL
same,MIC,Salmonella typhinurium,6.25 µg/mL
same,MIC,"Escherichia coli NIHJ; Escherichia coli, 24 h",100 µg/mL
same,MIC,[3]; [9],12.5 µg/mL
same,MIC,[4]; [13],3.12 µg/mL
same,MIC,Pasteurella multocida; [11],3.12 µg/mL
same,MIC,"[5]; Pseudomonas, IFO3443, 24 h",100 µg/mL
"CCCCCCCCCCCCCCC(O)CNCCN1CCCN=CC(C)C1=O (stereo not shown) [Example 49, 1-(2-hydroxyhexadecyl)aminoethyl-3-methyl-3,6,7,8-tetrahydro-1,5-diazocin-2-one]",MIC,Streptococcus faecalis; [6],6.25 µg/mL
same,MIC,[1]; [7],3.12 µg/mL
same,MIC,[2]; [6],1.56 µg/mL
same,MIC,Escherichia coli NIHJ,25 µg/mL
same,MIC,[3]; [6],3.12 µg/mL
same,MIC,[4]; [7],3.12 µg/mL
same,MIC,Pasteurella multocida,< 1.56 µg/mL
same,MIC,[5]; [6],200 µg/mL
"CCCCCCCCCc1ccc(OCCOCCN2CCCN=CC(C)(C)C2=O)cc1 [Example 62, 1-nonylphenylpoly(2 moles)oxyethyleneoxyethyl-3,3-dimethyl-6,7,8-trihydro-1,5-diazocin-5-one]",MIC,[1]; [8],100 µg/mL
same,MIC,"Escherichia coli NIHJ; Escherichia coli, 24 h",200 µg/mL
same,MIC,[4]; [10],50 µg/mL
"CCCCCCCCOCCCN1CCN=CC(C)(C)C1=O [Example 63, 4-octoxypropyl-6,6-dimethyl-3-hydro-2H-1,4-diazepin-5-one]",MIC,[1]; [8],100 µg/mL
same,MIC,"Escherichia coli NIHJ; Escherichia coli, 24 h",400 µg/mL
same,MIC,[4]; [10],50 µg/mL
"CCCCCC[C@@H](O)C/C=C\CCCCCCCC(=O)NCCN1CCN=CC(C)(C)C1=O [Example 64, 4-ricinolamidoethyl-6,6-dimethyl-3-hydro-2H-1,4-diazepin-5-one]",MIC,[1]; [8],200 µg/mL
same,MIC,"Escherichia coli NIHJ; Escherichia coli, 24 h",400 µg/mL
same,MIC,[4]; [10],25 µg/mL
"CCCCCCCCCc1ccc(OCC(O)CNCCNCCNCCN2CCN=CCC(C)C2=O)cc1 (stereo not shown) [Example 69, 4-nonylphenoxy(2-hydroxy)propylaminoethylaminoethylaminoethyl-6-methyl-2,3,6,7-tetrahydro-1,4-diazocin-5-one]",MIC,[1]; [8],200 µg/mL
same,MIC,"Escherichia coli NIHJ; Escherichia coli, 24 h",200 µg/mL
same,MIC,[4]; [10],50 µg/mL
"CCCCCCCCCCCCNC(=O)CCC [Laurylbutylamide, reference compound]",MIC,[1]; [14],≥ 10000 µg/mL
same,MIC,Escherichia coli NIHJ; [15],≥ 10000 µg/mL
same,MIC,[4]; [10],400 µg/mL
"CCCCCCCCCCCC[N+](C)(C)CC(=O)[O-] [Lauryldimethylbetaine, lauryldimethylbetaine, reference compound]",MIC,[1]; [12],≥ 10000 µg/mL
same,MIC,"Escherichia coli NIHJ; Escherichia coli, Table 2, derivatives having a carboxylate radical, heart infusion agar, 37° C., 24 hours, read-out: MIC",≥ 10000 µg/mL
same,MIC,[4]; [13],1600 µg/mL
"CCCCCCCC/C=C\CCCCCCCCNCCCNC(=O)CCCCCCC/C=C\CCCCCCCC [Oleylaminopropyl oleamide, oleylaminopropyloleamide, reference compound]",MIC,[1]; [14],≥ 10000 µg/mL
same,MIC,Escherichia coli NIHJ; [15],≥ 10000 µg/mL
same,MIC,[4]; [10],100 µg/mL
